Values of other authors in US20080311196A1, “All Day Rhinitic Condition Treatment Regimen” (priority 2006, published 2008).

Columns and labels:
histamine H1-receptor = histamine H1-receptor (Homo sapiens, UniProt P35367); details: E-isomer versus Z-isomer; fit in the histamine H1-receptor binding site
Chain of histamine H1-receptor (P35367 whole entry, species assumed): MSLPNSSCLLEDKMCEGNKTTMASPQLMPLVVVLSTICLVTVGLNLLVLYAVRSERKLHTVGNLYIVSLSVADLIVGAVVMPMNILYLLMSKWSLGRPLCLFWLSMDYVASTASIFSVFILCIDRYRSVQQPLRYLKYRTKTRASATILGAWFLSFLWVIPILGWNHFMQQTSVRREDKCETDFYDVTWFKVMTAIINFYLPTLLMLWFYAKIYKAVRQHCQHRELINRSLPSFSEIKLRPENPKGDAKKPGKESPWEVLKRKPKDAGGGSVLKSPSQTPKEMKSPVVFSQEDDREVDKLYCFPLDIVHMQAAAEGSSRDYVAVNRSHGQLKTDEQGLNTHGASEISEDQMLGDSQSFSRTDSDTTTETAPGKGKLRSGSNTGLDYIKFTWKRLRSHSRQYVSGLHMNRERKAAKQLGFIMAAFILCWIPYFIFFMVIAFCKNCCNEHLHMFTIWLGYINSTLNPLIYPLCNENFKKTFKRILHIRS

| Molecule | time of maximal pharmacological sedation after dosing (after dosing) | persistence of sedation following dosing (following dosing, usually not longer than) | duration of inhibition of the symptoms of rhinitis (single dose) | potency relative to Z-triprolidine (histamine H1-receptor) |
| --- | --- | --- | --- | --- |
| CN(C)CCC(c1ccc(Cl)cc1)c1ccccn1 (stereo not shown) [chlorpheniramine] | 3 to 4 hour | 6 to 8 h | more than 24 hours | – |
| E-triprolidine | – | – | – | E-triprolidine, for example, is 1000-fold |
